Log 1/M and Cooperativity data for eleven compounds are collected here from ChEMBL document CHEMBL1135887, “Substituted pentacyclic carbazolones as novel muscarinic allosteric agents: synthesis and structure-affinity and cooperativity relationships” (J Med Chem, 2002).

Test [1] deals with T1, Muscarinic acetylcholine receptor M2 (Homo sapiens) (UniProt P08172).
T1 sequence (whole entry): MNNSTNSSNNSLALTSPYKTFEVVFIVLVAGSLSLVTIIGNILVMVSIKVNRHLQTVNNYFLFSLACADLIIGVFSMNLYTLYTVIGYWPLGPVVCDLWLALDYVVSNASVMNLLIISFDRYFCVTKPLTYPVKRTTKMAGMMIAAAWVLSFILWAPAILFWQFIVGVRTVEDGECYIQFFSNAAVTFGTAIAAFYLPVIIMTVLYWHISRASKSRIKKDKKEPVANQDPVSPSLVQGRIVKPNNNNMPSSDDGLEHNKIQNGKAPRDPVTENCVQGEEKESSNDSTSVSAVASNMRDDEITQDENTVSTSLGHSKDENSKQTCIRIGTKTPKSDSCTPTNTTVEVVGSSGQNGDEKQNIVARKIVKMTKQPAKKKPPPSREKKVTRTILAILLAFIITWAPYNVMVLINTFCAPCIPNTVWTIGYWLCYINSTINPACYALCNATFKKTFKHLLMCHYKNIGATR
Briefly: Logarithm of affinity (log 1/M) at the muscarinic acetylcholine receptor M2 by using semiquantitative equilibrium and off-rate assay.

Test [2] has as its target T1, Muscarinic acetylcholine receptor M2 (Homo sapiens). Description: Logarithm of affinity (log 1/M) at the (N-methyl Scopolamine) NMS-liganded muscarinic acetylcholine receptor M2 by using semiquantitative equilibrium and off-rate assay.
Test [3] has the same target. Briefly: Subtype selectivity and the cooperativity with N-methyl Scopolamine (NMS) at Muscarinic acetylcholine receptor M2; Activity range is 0.2-0.8.
For test [4], the target named is T2, Muscarinic acetylcholine receptor M4 (Homo sapiens) (UniProt P08173).
T2 sequence (whole entry): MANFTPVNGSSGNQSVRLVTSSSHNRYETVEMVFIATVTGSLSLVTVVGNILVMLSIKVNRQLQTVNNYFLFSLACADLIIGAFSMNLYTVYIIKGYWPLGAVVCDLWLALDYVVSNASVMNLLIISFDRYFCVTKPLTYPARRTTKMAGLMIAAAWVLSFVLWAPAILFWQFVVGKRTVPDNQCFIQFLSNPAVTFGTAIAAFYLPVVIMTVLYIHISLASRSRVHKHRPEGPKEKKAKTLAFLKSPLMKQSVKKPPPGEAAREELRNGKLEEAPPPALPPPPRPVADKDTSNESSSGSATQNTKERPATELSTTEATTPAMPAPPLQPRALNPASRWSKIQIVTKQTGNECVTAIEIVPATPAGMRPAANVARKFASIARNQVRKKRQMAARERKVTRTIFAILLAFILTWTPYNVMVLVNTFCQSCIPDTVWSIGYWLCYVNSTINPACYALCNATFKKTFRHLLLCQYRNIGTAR
Description: Subtype selectivity and the cooperativity with N-methyl Scopolamine (NMS) at Muscarinic acetylcholine receptor M4; Activity range is 0.81-1.19.

Test [5] deals with T3, Muscarinic acetylcholine receptor M1 (Homo sapiens) (UniProt P11229).
T3 sequence (whole entry): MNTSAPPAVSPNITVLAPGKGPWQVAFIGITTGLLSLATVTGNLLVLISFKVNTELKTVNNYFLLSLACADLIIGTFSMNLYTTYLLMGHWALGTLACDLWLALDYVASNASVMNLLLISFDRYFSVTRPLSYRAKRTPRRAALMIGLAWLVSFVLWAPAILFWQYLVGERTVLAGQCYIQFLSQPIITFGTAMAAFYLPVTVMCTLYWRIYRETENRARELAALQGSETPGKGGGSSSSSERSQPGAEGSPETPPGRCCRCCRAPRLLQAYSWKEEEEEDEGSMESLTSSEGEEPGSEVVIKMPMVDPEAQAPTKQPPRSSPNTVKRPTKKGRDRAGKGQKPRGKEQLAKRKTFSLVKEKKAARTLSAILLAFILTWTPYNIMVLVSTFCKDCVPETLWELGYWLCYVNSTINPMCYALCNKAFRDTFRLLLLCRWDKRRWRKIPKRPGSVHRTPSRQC
Briefly: Logarithm of affinity (log 1/M) at the (N-methyl Scopolamine) NMS-liganded muscarinic acetylcholine receptor M1 by using semiquantitative equilibrium and off-rate assay.

Test [6] concerns the target T3, Muscarinic acetylcholine receptor M1 (Homo sapiens). Description: Subtype selectivity and the cooperativity with N-methyl Scopolamine (NMS) at Muscarinic acetylcholine receptor M1; Activity range is 0.2-0.8.
The target of test [7] is Muscarinic acetylcholine receptor M3 (Homo sapiens) (UniProt P20309). Briefly: Subtype selectivity and the cooperativity with N-methyl Scopolamine (NMS) at muscarinic acetylcholine receptor M3; Activity range is 0.2-0.8.
Test [8] shares this target. Briefly: Logarithm of affinity (log 1/M) at the (N-methyl Scopolamine) NMS-liganded muscarinic acetylcholine receptor M3 by using semiquantitative equilibrium and off-rate assay.
For test [9] the target is unchanged. Description: Logarithm of affinity (log 1/M) at the muscarinic acetylcholine receptor M3 by using semiquantitative equilibrium and off-rate assay.
For test [10], the target named is T2, Muscarinic acetylcholine receptor M4 (Homo sapiens). Briefly: Logarithm of affinity (log 1/M) at the (N-methyl Scopolamine) NMS-liganded muscarinic acetylcholine receptor M4 by using semiquantitative equilibrium and off-rate assay.
Test [11] has the same target. Description: Logarithm of affinity (log 1/M) at the muscarinic acetylcholine receptor M4 by using semiquantitative equilibrium and off-rate assay.
Test [12] has as its target T3, Muscarinic acetylcholine receptor M1 (Homo sapiens). Description: Logarithm of affinity (log 1/M) at the free muscarinic acetylcholine receptor M1 by using semiquantitative equilibrium and off-rate assay.
The target is the same in test [13]. Briefly: Subtype selectivity and the cooperativity with N-methyl Scopolamine (NMS) at Muscarinic acetylcholine receptor M1; Activity range is 1.2-3.
Test [14] has as its target T2, Muscarinic acetylcholine receptor M4 (Homo sapiens). Description: Subtype selectivity and cooperativity with N-methyl Scopolamine (NMS) at Muscarinic acetylcholine receptor M4; Activity range is 1.2-3.
Test [15] has as its target Muscarinic acetylcholine receptor M3 (Homo sapiens) (UniProt P20309). Description: Subtype selectivity and the cooperativity with N-methyl Scopolamine (NMS) at Muscarinic acetylcholine receptor M3; […].
Test [16] has as its target T1, Muscarinic acetylcholine receptor M2 (Homo sapiens). Briefly: Subtype selectivity and the cooperativity with N-methyl Scopolamine (NMS) at Muscarinic acetylcholine receptor M2.
For test [17], the target named is T2, Muscarinic acetylcholine receptor M4 (Homo sapiens). Briefly: Subtype selectivity and the cooperativity with N-methyl Scopolamine (NMS) at Muscarinic acetylcholine receptor M4; Activity range is 0.2-0.8.
Test [18] addresses T1, Muscarinic acetylcholine receptor M2 (Homo sapiens). Briefly: Subtype selectivity and the cooperativity with N-methyl Scopolamine (NMS) at Muscarinic acetylcholine receptor M2; Activity range is 1.2-3.
Test [19] concerns the target T2, Muscarinic acetylcholine receptor M4 (Homo sapiens). Description: Subtype selectivity and the cooperativity with N-methyl Scopolamine (NMS) at Muscarinic acetylcholine receptor M4.
The target of test [20] is T3, Muscarinic acetylcholine receptor M1 (Homo sapiens). Briefly: Subtype selectivity and the cooperativity with N-methyl Scopolamine (NMS) at Muscarinic acetylcholine receptor M1; Activity range is 0.81-1.19.
Test [21] has the same target. Description: Subtype selectivity and the cooperativity with N-methyl Scopolamine (NMS) at Muscarinic acetylcholine receptor M1.

Where only a bound is given, the exact number is not on record here.

Sequence of Muscarinic acetylcholine receptor M3 (Homo sapiens) (P20309 whole entry, looked up): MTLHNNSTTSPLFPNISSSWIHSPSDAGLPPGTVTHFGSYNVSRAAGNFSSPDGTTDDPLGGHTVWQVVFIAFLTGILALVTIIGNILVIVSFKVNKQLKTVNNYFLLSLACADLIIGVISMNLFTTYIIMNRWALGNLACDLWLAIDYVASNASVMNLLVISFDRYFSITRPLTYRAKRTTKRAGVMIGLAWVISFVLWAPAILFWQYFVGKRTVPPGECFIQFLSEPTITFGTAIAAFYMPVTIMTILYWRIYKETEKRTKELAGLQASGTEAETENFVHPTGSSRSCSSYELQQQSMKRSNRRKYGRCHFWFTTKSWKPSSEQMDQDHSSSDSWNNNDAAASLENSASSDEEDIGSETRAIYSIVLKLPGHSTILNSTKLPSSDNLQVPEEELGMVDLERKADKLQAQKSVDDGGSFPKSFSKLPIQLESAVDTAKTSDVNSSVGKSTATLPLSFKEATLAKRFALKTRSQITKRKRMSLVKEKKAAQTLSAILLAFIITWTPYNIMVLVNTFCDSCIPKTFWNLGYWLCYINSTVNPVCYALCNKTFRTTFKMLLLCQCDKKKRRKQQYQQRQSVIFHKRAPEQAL

Consider `N#Cc1ccc2c3c4c(cc5c3n(c2c1)C(=O)CC5)CNCC4`, for which the Log 1/M in [1] was 5.79; in [2] it was 5.58; in test [5], 5.46; in [8], 4.68; in test [9] it was 5.19; in test [10], 5.36. Moreover, the Log 1/M in test [11] came to 5.85; in test [12], 5.87. Moreover, the Cooperativity in test [3] stood at 0.8; in test [4], 1.19; in [6], 0.8; in test [7], 0.8.
With `O=C1CCc2cc3c(c4c5c(Cl)cccc5n1c24)CCNC3`, the Log 1/M worked out at 6.6 in test [1]; 7.12 in test [2]; 6.58 in [5]; 6.05 in test [8]; 5.92 in test [9]; 6.66 in test [10]. Besides, the Log 1/M in [11] amounted to 6.26; in test [12] it was 6.24. In addition, the Cooperativity in [13] is 3; in test [14], 3; in test [15], 1.19; in test [16] it was greater than 3.
Take `COc1cc2c3c4c(cc5c3n(c2cc1OC)C(=O)CC5(C)C)CCNC4`: the Log 1/M was determined as 7.08 in test [1]; 6.7 in [2]; 6.29 in test [5]; 5.47 in test [8]; 6.03 in test [9]; 6.37 in test [10]. Further, the Log 1/M in test [11] came out at 6.67; in test [12], 6.88. Moreover, the Cooperativity in test [17], in [3], in [6] and in test [7] was 0.8 each time.
Take `O=C1CCc2cc3c(c4c5ccc(Cl)cc5n1c24)CCNC3`: the Log 1/M in test [1] amounted to 6.46; in test [2], 6.81; in test [5], 6.51; in test [8], 5.48; in test [9] it was 5.39; in test [10] it was 6.47. Further, the figures for the Log 1/M in test [11] and in test [12] were 5.61 and 6.06, respectively. For the same compound, the Cooperativity was 3 in [13], 3 in test [18], greater than 3 in test [19] and 1.19 in test [15].
As for `CC1(C)CC(=O)n2c3cccc(O)c3c3c4c(cc1c32)CNCC4`, the Log 1/M in [1] was determined as 5.56; in test [2] it was 5.88; in test [5], 5.84; in test [8], 4.84; in test [9], 5.15; in [10], 5.97. Further, the Log 1/M in test [11] stood at 5.75; in test [12] it was 5.8. For the same compound, the Cooperativity in [7] is 0.8; in test [18], 3; in test [14], 3; in test [20] it was 1.19.
Consider `COC(=O)c1ccc2c3c4c(cc5c3n(c2c1)C(=O)CC5)CNCC4`, for which the Log 1/M in test [1] is 6.39; in test [2], 6.35; in [5], 5.72; in test [8] it was 4.83; in test [9], 5.43; in [10] it was 6.01. Also, the values for the Log 1/M in test [11] and in test [12] were 5.04 and 6.14, respectively. For the same compound, the Cooperativity in [17], in [3], in [6] and in [7] was 0.8 in each case.
Take `CC1(C)CC(=O)n2c3ccccc3c3c4c(cc1c32)CCNC4`: the Log 1/M in test [1] came out at 5.69; in [2] it was 5.87; in [5] it was 5.69; in test [8], 4.56; in test [9] it was 4.86; in test [10], 5.8. In addition, the results for the Log 1/M in test [11] and in test [12] were 5.42 and 5.6, respectively. The Cooperativity in [13] amounted to 3; in [7] it was 0.8; in test [18] it was 3; in [14] it was 3.
Turning to `COc1ccc2c3c4c(cc5c3n(c2c1)C(=O)CC5)CCNC4`, the Log 1/M was found to be 5.92 in [1]; 6.18 in test [2]; 6.17 in test [5]; 4.86 in [8]; 5.14 in test [9]; 6 in [10]. The results for the Log 1/M in test [11] and in test [12] were 5.68 and 6.13, respectively. For the same compound, the Cooperativity in [7] is 0.8; in [18] it was 3; in test [14], 3; in test [20] it was 1.19.
Consider `COc1ccc2c3c4c(cc5c3n(c2c1)C(=O)CC5)CNCC4`, for which the Log 1/M in [1] is 5.9; in test [2], 6.35; in [5], 6.07; in test [8], 5.2; in test [9] it was 5.33; in [10], 6.14. The Log 1/M in test [11] was found to be 4.64; in test [12], 5.84. Moreover, the Cooperativity worked out at 3 in test [13], 0.8 in test [7], 3 in test [18] and 3 in [14].
Turning to `COC(=O)c1ccc2c(c1)c1c3c(cc4c1n2C(=O)CC4)CCNC3`, the Log 1/M was determined as 6.14 in test [1]; 6.03 in [2]; 5.85 in test [5]; 4.88 in [8]; 5.55 in test [9]; 5.91 in test [10]. The Log 1/M in [11] came to 5.84; in [12], 6.19. Besides, the Cooperativity in test [3] worked out at 0.8; in test [4], 1.19; in test [6], 0.8; in test [7], 0.8.
For the compound `O=C1CCc2cc3c(c4c5c(O)cccc5n1c24)CCNC3`, the Log 1/M in [1] was found to be 5.99; in test [2] it was 6.28; in [5], 6.11; in test [8], 5.27; in test [9] it was 5.43; in test [10], 6.13. Further, the Log 1/M in [11] came to 5.6; in test [12], 5.84. Moreover, the Cooperativity in [19] was greater than 3; in [15], 1.19; in test [21], greater than 3; in [16], greater than 3.
